Source: patent US20240293351A1, “METHODS OF ADMINISTERING SYNTHETIC TRITERPENOIDS” (REATA PHARMACEUTICALS HOLDINGS, LLC, priority 2020, published 2024)
Where “and” joins values, the source holds several entries; their conditions need not be identical. Equal values may be shown once. Read-outs that look alike come from different tables or passages of the source.

[1] = ITT N = 1088, adjudicated primary endpoints
[2] = post-hoc ITT, Observed N, randomized 1088
[3] = post-hoc, Age ≤ 75, randomized 786
[4] = post-hoc, BL ACR ≤ 300, eGFR > 20, BNP ≤ 200, randomized 209
[5] = post-hoc, BL ACR ≤ 1000, eGFR > 20, Age ≤ 75, randomized 368
[6] = post-hoc, BL ACR ≤ 1000, randomized 798
[7] = post-hoc, BL BNP ≤ 200, randomized 559
[8] = post-hoc, BL eGFR > 20, randomized 735
[9] = post-hoc, No h/o HF, randomized 922

COC(=O)[C@]12CCC(C)(C)C[C@H]1[C@H]1C(=O)C=C3[C@@]4(C)C=C(C#N)C(=O)C(C)(C)[C@@H]4CC[C@@]3(C)[C@]1(C)CC2 [Bardoxolone methyl, methyl-2-cyano-3,12-dioxooleana-1,9-dien-28-oic acid]
Occurrence of Death (BEACON, ITT, BARD 20 mg (N = 1088), deaths at database lock): 4.0%
Occurrence of ESRD (BEACON, ITT, BARD 20 mg (N = 1088), events through last date of contact): 4.0%
Patient's first event: CV death, patients [1]: 26 n
Patient's first event: Chronic dialysis, patients [1]: 40 n
Patient's first event: End stage renal disease (ESRD), patients [1]: 43 n
Patient's first event: Renal death, patients [1]: 2 n
Patient's first event: Renal transplant, patients [1]: 1 n
Composite primary efficacy outcome (ESRD or CV death), patients (ITT N = 1088, adjudicated, on or before study termination): 69 n
SAE Infections and infestations, patients (ITT, All Patients N = 1088): 79
SAE Infections and infestations, patients (ITT, BL ACR ≤ 300, eGFR > 20, BNP ≤ 200, N = 209): 9
SAE Infections and infestations, patients (ITT, BL ACR ≤ 1000, eGFR > 20, Age ≤ 75, N = 368): 20
Treatment-emergent SAE: Infections and infestations, patients (Safety Population N = 1092, 20 mg once daily): 79 n
Fatal heart failure events (final analysis): three
Hy's Law cases (human, in vivo): no Hy's Law cases were observed
Increase in BNP from baseline, Mean±SD (human, in vivo): 225 ± 598 pg/mL
K^+ Retention (human, in vivo): None
Mean WK 24 ΔeGFR (human, in vivo): 6.1 and 5.5 and 7.6
Mean increase in diastolic blood pressure (human, in vivo): 1.4 mmHg
Mean increase in systolic blood pressure (human, in vivo): 1.9 mmHg
N of patients with WK 24 BNP change 25% to 100% Increase (human, in vivo): 45
N of patients with WK 24 BNP change <25% Increase (human, in vivo): 84
N of patients with WK 24 BNP change ≥100% Increase (human, in vivo): 82
QTc prolongation (human, in vivo): not associated with QTc prolongation
SAE Endocrine disorders, patients (human, in vivo): 1
QTcF interval, change from baseline, 25th quartile (human, in vivo, 24 weeks): -13 ms
QTcF interval, change from baseline, 75th quartile (human, in vivo, 24 weeks): 10 ms
QTcF interval, change from baseline, Mean (SD) (human, in vivo, 24 weeks): −0.9 (19.2) msec
QTcF interval, change from baseline, Range (min, max) (human, in vivo, 24 weeks): −88, 69
QTcF interval, change from baseline, median (human, in vivo, 24 weeks): -1 ms
QTcF interval, observed, 25th quartile (human, in vivo, 24 weeks): 407 ms
QTcF interval, observed, 75th quartile (human, in vivo, 24 weeks): 443 ms
QTcF interval, observed, Mean (SD) (human, in vivo, 24 weeks): 425.8 (26.5) msec
QTcF interval, observed, median (human, in vivo, 24 weeks): 425 ms
All-Cause Death, patients [2]: 44
ESRD, patients with event [2]: 47
All-Cause Death, patients [3]: 20
ESRD, patients with event [3]: 38
All-Cause Death, patients [4]: 5
ESRD, patients with event [4]: 1
All-Cause Death, patients [5]: 11
ESRD, patients with event [5]: 9
All-Cause Death, patients [6]: 32
ESRD, patients with event [6]: 21
All-Cause Death, patients [7]: 14
ESRD, patients with event [7]: 12
All-Cause Death, patients [8]: 27
ESRD, patients with event [8]: 18
All-Cause Death, patients [9]: 35
ESRD, patients with event [9]: 35
Deaths confirmed as cardiovascular, patients (prior to clinical database lock (Mar. 4, 2013)): 29
